Measured values reported in patent US10519169B2, “3-(1H-pyrrolo[2,3-C]pyridin-2-yl)-1 H-pyrazolo[4,3-B]pyridines and therapeutic uses thereof” (Samumed, LLC, priority 2015, dated 2019).

Assays:
[1] = test system: primary human fibroblasts derived from IPF patients (LL29 cells) treated with TGF-β1; experiment: Inhibition of fibrotic process, αSMA staining in TGF-β1 treated LL29 fibroblasts; assay type: cell-based; conditions: Fibroblast; for EC50: 96 h, TGF-β1 20 ng/mL, 4 days, % cells positive for αSMA; for inhibition at 10 µM: given for EC50 >10 μM, TGF-β1, αSMA, read-out: percent inhibition at 10 μM
Outline: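 Human IPF-derived LL29 lung fibroblasts in 1% FBS, TGF-β1 20 ng/mL, 11-point compound series, 0.1% DMSO, 4 days at 37 °C. SYTOX-positive cells excluded; % αSMA-positive cells imaged, normalized to TGF-β1/DMSO wells, EC50 by nonlinear fit. Above 10 μM, % inhibition at 10 μM given.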

IL-6 = IL-6 inhibition in LPS-stimulated THP-1 cells (HTRF); assay type: cell-based; conditions: Homo sapiens; for EC50: LPS 500 ng/mL, 22 hours, IL6 HTRF; for inhibition at 10 µM: given for EC50 >10 μM, LPS, IL6, at 10 M [sic], read-out: percent inhibition at 10 M
Outline: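 THP-1 monocytes, serum-reduced (1% FBS) for 24 h, were preincubated 2 h with compound at 0.1% DMSO (10-point, 1:3 dilutions from 10 μM), then stimulated with 500 ng/mL LPS for 22 h at 37 °C. IL-6 was quantified by HTRF (665/620 nm ratio), normalized to DMSO. EC50 came from 4-parameter regression, or % inhibition at 10 μM.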

## CS(=O)(=O)NCc1cc(F)cc(-c2cncc3[nH]c(-c4n[nH]c5ccc(-c6ccccn6)nc45)cc23)c1 [Compound 504, N-(3-Fluoro-5-(2-(5-(pyridin-2-yl)-1H-pyrazolo[4,3-b]pyridin-3-yl)-1H-pyrrolo[2,3-c]pyridin-4-yl)benzyl)methanesulfonamide]
[1]
  EC50: 3670 nM
IL-6
  EC50: 31 nM

## Fc1cccc(-c2cncc3[nH]c(-c4n[nH]c5ccc(C6CCNCC6)nc45)cc23)c1 [Compound 505, 3-(4-(3-Fluorophenyl)-1H-pyrrolo[2,3-c]pyridin-2-yl)-5-(piperidin-4-yl)-1H-pyrazolo[4,3-b]pyridine]
[1]
  EC50: > 10000 nM
  inhibition at 10 µM: 0%
IL-6
  EC50: 1110 nM

## Fc1ccccc1-c1cncc2[nH]c(-c3n[nH]c4ccc(-c5cn[nH]c5)nc34)cc12 [Compound 539, 3-(4-(2-Fluorophenyl)-1H-pyrrolo[2,3-c]pyridin-2-yl)-5-(1H-pyrazol-4-yl)-1H-pyrazolo[4,3-b]pyridine]
[1]
  EC50: 2310 nM
IL-6
  EC50: 160 nM

## Cn1cc(-c2ccc3[nH]nc(-c4cc5c(-c6cccnc6)cncc5[nH]4)c3n2)cn1 [Compound 556, 5-(1-Methyl-1H-pyrazol-4-yl)-3-(4-(pyridin-3-yl)-1H-pyrrolo[2,3-c]pyridin-2-yl)-1H-pyrazolo[4,3-b]pyridine]
[1]
  EC50: 3020 nM
IL-6
  EC50: 3710 nM

## Cc1ncc(-c2ccc3[nH]nc(-c4cc5c(-c6ccncc6)cncc5[nH]4)c3n2)n1C [Compound 573, 5-(1,2-Dimethyl-1H-imidazol-5-yl)-3-(4-(pyridin-4-yl)-1H-pyrrolo[2,3-c]pyridin-2-yl)-1H-pyrazolo[4,3-b]pyridine]
[1]
  EC50: 2190 nM
IL-6
  EC50: > 10000 nM
  inhibition at 10 µM: 0%

## c1cc(-c2cncc3[nH]c(-c4n[nH]c5ccc(-c6cncc(OCCN7CCCC7)c6)nc45)cc23)co1 [Compound 690, 3-(4-(Furan-3-yl)-1H-pyrrolo[2,3-c]pyridin-2-yl)-5-(5-(2-(pyrrolidin-1-yl)ethoxy)pyridin-3-yl)-1H-pyrazolo[4,3-b]pyridine]
[1]
  EC50: > 10000 nM
  inhibition at 10 µM: 29.5%
IL-6
  EC50: > 10000 nM
  inhibition at 10 µM: 9.7%
